Assay results reported in patent publication US8410130B2, “Synthesis of 8H-3A-aza-cyclopenta [A ]indenes and 5,10-dihydropyrrolo[1,2-B]isoquinolines derivatives and their use as antitumor therapeutic agents” (Academia Sinica, priority 2007, dated 2013).

Assays:
[1] = tested on: human prostate adenocarcinoma PC-3 xenograft; assay: Therapeutic effect in nude mice bearing PC-3 xenograft; assay type: in vivo; conditions: 50 mg/kg, QD×4, i.v. inj.
Protocol: FIGS. 3A-B illustrates the therapeutic effect of DA-1099 in nude mice bearing human prostate adenocarcinoma PC-3 xenograft (i.v. inj., n=3), average tumor size changes (FIG. 3A) and average body weight changes (FIG. 3B).
(§1) Athymic nude mice bearing the nu/nu gene were obtained from NCI, Frederick, Md. and used for all human tumor xenografts. Male nude mice, 6 weeks or older, weighing 20-24 g or more were used. Compounds were administered via the tail vein for i.v. injection or infusion as described previously (Chou T-C et al., Proc. Natl. Acad. Sci. USA 2001, 98, 8113-8118). Various formulations were prepared for injections into the mice for chemotherapeutic studies. As an example, a drug was dissolved in DSMO to make a 25 mg/ml fresh solution, 0.4 ml of this solution was mixed with 0.3 ml of Tween 80, plus 1.3 ml to make 2 ml of 5 mg/ml solution. Bolus injection volume was 0.1-0.2 ml per mouse.
(§2) The therapeutic effects of N-mustard DA-1099 against human prostate adenocarcinoma PC-3 s.c. xenograft in nude mice is shown in FIGS. 3, 3A and 3B. xenograft (i.v. inj., n=3), average tumor size changes (FIG. 3A) and average body weight changes (FIG. 3B). […] Under optimal therapeutic conditions, intravenous injection, of DA-1090, 1099, and 1107, 20 (QD×4), 50 (QD×3), and 20 (QD×4) mg/kg, respectively, yielded 53%, 78%, and 71% tumor suppression, respectively, on day 22.

[2] = tested on: Human mammary carcinoma (MX-1) tumor cells; assay: In vitro cytotoxicity, sulforhodamine B (SRB) assay; assay type: cell-based; conditions: Homo sapiens, 72-hr incubation
Description: (§3) Human colon carcinoma HCT-116 cells, human prostate adenocarcinoma PC-3 and adenocarcinoma SK-OV-3 cells were obtained from American Type Culture Collection (ATCC, Rockville, Md.). Human mammary carcinoma (MX-1) tumor cells were obtained from MSKCC cell bank. The CCRF-CEM human lymphoblastic leukemia cells and their vinblastine resistant subline (CCRF-CEM/VBL, 680-fold resistance in vitro) were obtained from Dr. William Beck of the University of Illinois, Chicago, and CCRF-CEM/Taxol (330-fold resistance in vitro). Resistant cells CCRF-CEM/taxol were produced by exposing the parent cells to increasing sublethal concentration (IC50-IC90) of paclitaxel for six months.
(§4) In preparation for in vitro cytotoxicity assays, cells were cultured at an initial density 2-5×10^4 cells per milliliter. They were maintained in a 5% CO2-humidified atmosphere at 37° C. in RPMI medium 1640 (GIBCO/BRL) containing penicillin (100 units/mL), streptomycin (100 μg/mL, GIBCO/BRL), and 5% heat-inactivated FBS. For cells grown in suspension (such as CCRF-CEM and its sublines), cytotoxicity was measured, by using XTT microculture method in 96-well microtiter plates (Scudiero D A et al., Cancer Res. 1988, 48, 4827-4833). For solid tumor cells growing in a monolayer (such as MX-1 and HCT-116), cytotoxicity of the drug was determined, in duplicate, in 96-well microtiter plates by using the sulforhodamine B method (Skehan P et al., J. Natl. Cancer Inst 1990, 82, 1107-1112). For both methods, the absorbance of each well was measured with a microplate reader (Power Wave XS, Bio-Tek, Winooski, Vt.) after 72-hr incubation as described previously (Chou T-C et al., Proc. Natl. Acad. Sci. USA 2001, 98, 8113-8118). Dose-effect relationship data from 6 to 7 concentrations of each drug, in duplicate, were analyzed by using a computer program (Chou T-C et al., ComboSyn, Inc., Paramus, N J. 2005) based on the median-effect principle and plot (Chou T-C et al., Adv. Enzyme Regul. 1984, 22, 27-55; Chou T-C, Pharmacol. Rev. 2006, 58, 621-681).
(§5) The IC50 is defined by the concentration required to inhibit tumor cell growth by 50%. […] The growth inhibition of the compounds disclosed herein against human lymphoblastic leukemic cells (CCRF-CEM) and its drug-resistant sublines (resistant to vinblastine and taxol, CCRF-CEM/VBL and CCRF-CEM/taxol, respectively) is also shown in Table 5. […] Thus, the compounds disclosed herein are effective against multiple drug resistant tumors.

[3] = tested on: Human colon carcinoma HCT-116 cells; assay: as above; assay type: cell-based; conditions: Homo sapiens, HCT-116, 72-hr incubation
Description: as §3, §4, §5

[4] = tested on: ovarian adenocarcinoma SK-OV-3 xenograft; assay: Therapeutic effect in nude mice bearing SK-OV-3 xenograft; assay type: in vivo; conditions: intravenous injection, on day 22
Protocol: FIGS. 4A-B illustrates the therapeutic effects of DA-1090, 1099, 1107 in nude mice bearing ovarian adenocarcinoma SK-OV-3 xenograft (i.v. inj., n=3), average tumor size changes (FIG. 4A) and average body weight changes (FIG. 4B).
as §1, §2

[5] = tested on: CCRF-CEM human lymphoblastic leukemia cells; assay: In vitro cytotoxicity, XTT assay, 72-hr incubation; assay type: cell-based; conditions: Homo sapiens, CCRF-CEM
Description: as §3, §4, §5

[6] = tested on: CCRF-CEM/VBL; assay: In vitro cytotoxicity, XTT assay, vinblastine resistant subline; assay type: cell-based, human; conditions: for IC50: Homo sapiens, CCRF-CEM, XTT assay, 72-hr incubation; for fold of cross-resistant, CCRF-CEM/VBL vs IC50 of the parent cell line: numbers in brackets
Description: as §3, §4, §5

[7] = tested on: CCRF-CEM/Taxol; assay: In vitro cytotoxicity, XTT assay, taxol resistant subline; assay type: cell-based, human; conditions: for IC50: Homo sapiens, CCRF-CEM, XTT assay, 72-hr incubation; for fold of cross-resistant, CCRF-CEM/Taxol vs IC50 of the parent cell line: numbers in brackets
Description: as §3, §4, §5

[8] = tested on: human mammary carcinoma MX-1 xenograft; assay: Therapeutic effect in nude mice bearing MX-1 xenograft; assay type: in vivo; conditions: intravenous injection
Protocol: FIGS. 2A-B illustrates the therapeutic effect of DA-1090, 1099, 1124, 1012 and 1107 in nude mice bearing human mammary carcinoma MX-1 xenograft (i.v. inj, n=3-4), average tumor size changes (FIG. 2A) and average body weight changes (FIG. 2B).
as §1
Athymic nude mice bearing the nu/nu gene were used for human breast tumor MX-1 xenograft (FIGS. 2, 2A and 2B). Nude mice were obtained from National Cancer Institute, Frederick, Md. Male mice, 6 weeks old or older, weighing 22 g or more were used for experiments with subcutaneous tumor inoculation as described previously (Chou T-C, Pharmacol. Rev. 2006, 58, 621-681). Drug was administrated via the tail vein by iv injection. Tumor volumes were assessed by measuring length×width×height (or width) by using caliper. An example of vehicle used was 20 μL DMSO in 180 μL saline. All animal studies were conducted in accordance with the guidelines of the U.S. National Institutes of Health Guide for the Care and Use of Animals and the protocol approved by the Institutional Animal Care and Use Committee.

[9] = 30 mg/kg, every other two days (Q2D), two times
[10] = 15 mg/kg, every other two days (Q2D), two times
[11] = 18 mg/kg, every other two days (Q2D), two times

**Q.** For CCc1c(CO)c(CO)c2n1-c1ccccc1C2 [DA-1099, (3-Ethyl-2-hydroxymethyl-8H-3a-azacyclopenta[a]inden-1-yl)methanol], which tumor-growth suppression [1] is on record?
**A.** complete tumor-growth suppression

**Q.** What about the IC50 [2] of the same molecule?
**A.** 1080 nM

**Q.** What about the IC50 [3] of the same molecule?
**A.** 825 nM

**Q.** What about the tumor suppression ([4]; 50 mg/kg (QD×3)) of the same molecule?
**A.** 78%

**Q.** What about the IC50 [5] of the same molecule?
**A.** 356 nM

**Q.** What about the IC50 [6] of the same molecule?
**A.** 133 nM

**Q.** And the “fold of cross-resistant, CCRF-CEM/VBL vs IC50 of the parent cell line” value (“fold of cross-resistant, CCRF-CEM/VBL” for short) [6]?
**A.** [0.37x]

**Q.** And the IC50 [7]?
**A.** 229 nM

**Q.** And the “fold of cross-resistant, CCRF-CEM/Taxol vs IC50 of the parent cell line” value (“fold of cross-resistant, CCRF-CEM/Taxol” for short) [7]?
**A.** [0.64x]

**Q.** What about the “antitumor therapeutic effect (tumor size)” value (shortened to “antitumor therapeutic effect”) ([8]; 18 mg/kg, daily (QD) 3 times) of the same molecule?
**A.** tumor total disappearance

**Q.** What about the toxicity ([8]; 18 mg/kg, daily (QD) 3 times) of the same molecule?
**A.** low toxicity

**Q.** For Cc1c(CO)c(CO)c2n1Cc1ccccc1C2 [DA-1107, (2-Hydroxymethyl-3-methyl-5,10-dihydropyrrolo[1,2-b]isoquinolin-1-yl)methanol], which IC50 [2] is on record?
**A.** 616 nM

**Q.** And the IC50 [3]?
**A.** 281 nM

**Q.** And the tumor suppression ([4]; 20 mg/kg (QD×4))?
**A.** 71%

**Q.** And the IC50 [5]?
**A.** 81 nM

**Q.** And the IC50 [6]?
**A.** 93 nM

**Q.** What about the “fold of cross-resistant, CCRF-CEM/VBL” value [6] of the same molecule?
**A.** [1.15x]

**Q.** And the IC50 [7]?
**A.** 98 nM

**Q.** What about the “fold of cross-resistant, CCRF-CEM/Taxol” value [7] of the same molecule?
**A.** [1.21x]

**Q.** What about the “antitumor therapeutic effect” value [8, 9] of the same molecule?
**A.** tumor total disappearance

**Q.** What about the toxicity [8, 9] of the same molecule?
**A.** low toxicity

**Q.** How did the IC50 [2] turn out when CNC(=O)OCc1c(COC(=O)NC)c(-c2ccccc2OC)n2c1Cc1ccccc1-2 [DA-1124, Methylcarbamic acid 3-(2-methoxyphenyl)-2-methylcarbamoyloxymethyl-8H-3a-aza-cyclopenta[a]inden-1-ylmethyl ester] was run?
**A.** 1330 nM

**Q.** What about the IC50 [3] of the same molecule?
**A.** 151 nM

**Q.** And the IC50 [5]?
**A.** 136 nM

**Q.** What about the IC50 [6] of the same molecule?
**A.** 243 nM

**Q.** What about the “fold of cross-resistant, CCRF-CEM/VBL” value [6] of the same molecule?
**A.** [1.79x]

**Q.** And the IC50 [7]?
**A.** 360 nM

**Q.** What about the “fold of cross-resistant, CCRF-CEM/Taxol” value [7] of the same molecule?
**A.** [2.65x]

**Q.** And the “antitumor therapeutic effect” value [8, 10]?
**A.** tumor total disappearance

**Q.** What about the toxicity [8, 10] of the same molecule?
**A.** low toxicity

**Q.** Which IC50 [2] does the source give for Cc1c(CO)c(CO)c2n1-c1ccccc1C2 [DA-1090, (2-Hydroxymethyl-3-methyl-8H-3a-aza-cyclopenta[a]inden-1-yl)methanol] here?
**A.** 357 nM

**Q.** What about the IC50 [3] of the same molecule?
**A.** 332 nM

**Q.** And the tumor suppression ([4]; 20 mg/kg (QD×4))?
**A.** 53%

**Q.** And the IC50 [5]?
**A.** 76 nM

**Q.** What about the IC50 [6] of the same molecule?
**A.** 29.7 nM

**Q.** What about the “fold of cross-resistant, CCRF-CEM/VBL” value [6] of the same molecule?
**A.** [0.39x]^c

**Q.** And the IC50 [7]?
**A.** 66.3 nM

**Q.** And the “fold of cross-resistant, CCRF-CEM/Taxol” value [7]?
**A.** [0.87x]

**Q.** And the “antitumor therapeutic effect” value [8, 11]?
**A.** tumor total disappearance

**Q.** And the toxicity [8, 11]?
**A.** low toxicity
